Molecular target: T1, Amine oxidase [flavin-containing] B (Homo sapiens, UniProt P27338)
T1 sequence (P27338 whole entry): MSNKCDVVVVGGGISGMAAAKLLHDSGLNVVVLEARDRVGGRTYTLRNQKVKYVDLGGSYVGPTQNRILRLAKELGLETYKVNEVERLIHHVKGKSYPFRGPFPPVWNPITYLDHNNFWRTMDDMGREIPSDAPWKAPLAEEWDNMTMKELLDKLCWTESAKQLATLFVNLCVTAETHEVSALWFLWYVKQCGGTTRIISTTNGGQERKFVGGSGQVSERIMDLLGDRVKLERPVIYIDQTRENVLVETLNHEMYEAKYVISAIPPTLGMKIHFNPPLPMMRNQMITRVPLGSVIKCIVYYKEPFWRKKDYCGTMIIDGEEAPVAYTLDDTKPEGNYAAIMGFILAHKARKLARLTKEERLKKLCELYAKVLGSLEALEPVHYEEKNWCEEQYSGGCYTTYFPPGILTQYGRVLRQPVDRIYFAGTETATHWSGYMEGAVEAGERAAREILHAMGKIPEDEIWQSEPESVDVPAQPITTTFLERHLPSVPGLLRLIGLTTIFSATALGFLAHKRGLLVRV
Assay: Inhibition of human MAOB after 1 hr by luminescence assay

| IC50 | SMILES |
| --- | --- |
| > 10 µM | Cn1ccc2nc(/C=C/c3ccccc3)n(C)c2c1=O |
| > 1 µM | Cn1c(=O)c2c(cc(-c3nc4ccc(Cl)cc4o3)n2C)n(C)c1=O |
| > 1 µM | Cn1c(=O)c2c(cc(/C=C/c3ccc4c(c3)OCO4)n2C)n(C)c1=O |
| > 10 µM | Cn1c(/C=C/c2ccccc2)nc2c1ccc(=O)n2C |
| > 10 µM | CN(C(=O)/C=C/c1ccccc1)c1cn(C)c(=O)n(C)c1=O |
| > 1 µM | CCn1c(=O)c2c(cc(/C=C/c3ccc(Cl)cc3)n2C)n(CC)c1=O |
| > 1 µM | Cn1c(=O)c2c(cc(C#CCc3ccccc3)n2C)n(C)c1=O |
| > 10 µM | Cn1c(=O)c2c(cc(/C=C/c3ccncc3)n2C)n(C)c1=O |
| > 10 µM | Cn1c(=O)c2c(cc(/C=C/c3cccc(C#N)c3)n2C)n(C)c1=O |
| > 1 µM | CCn1c(/C=C/c2ccc(Cl)cc2)cc2c1c(=O)n(C)c(=O)n2C |
| > 1 µM | CCn1c(=O)c2c(cc(C#Cc3ccc(Cl)cc3)n2C)n(CC)c1=O |
| > 10 µM | Cn1c(=O)c2c(cc(NC(=O)c3ccc(Cl)cc3)n2C)n(C)c1=O |
| > 10 µM | Cn1c(=O)c2c(cc(Oc3cccc(-c4ccccc4)c3)n2C)n(C)c1=O |
| 7.63 µM | Cn1c(=O)c2c(c3ccc(-c4ccccc4)cc3n2C)n(C)c1=O |
| > 10 µM | CC(=O)c1cccc(/C=C/c2cc3c(c(=O)n(C)c(=O)n3C)n2C)c1 |
| > 10 µM | Cn1c(=O)c2c(cc(Oc3cccc(Cl)c3)n2C)n(C)c1=O |
| 1.48 µM | Cn1c(=O)c2c(cc(/C=C/c3cccc(Cl)c3)n2C)n(C)c1=O |
| > 1 µM | CCn1c(=O)c2c(cc(OCc3ccc(Cl)cc3)n2C)n(CC)c1=O |
| > 1 µM | Cn1c(=O)c2c(cc(/C=C/c3ccc(S(C)(=O)=O)cc3)n2C)n(C)c1=O |
| > 10 µM | Cn1c(=O)c2c(cc(/C=C/c3cccc(N)n3)n2C)n(C)c1=O |
| 1.58 µM | Cn1c(=O)c2c(cc(/C=C/c3ccccc3)n2C)n(C)c1=O |
| > 10 µM | CCn1c(=O)c2c(nc(/C=C/c3ccc(OC)c(OC)c3)n2C)n(CC)c1=O [ISTRADEFYLLINE] |

Molecular target: Adenosine receptor A2a (Homo sapiens, UniProt P29274)
Sequence (P29274 whole entry): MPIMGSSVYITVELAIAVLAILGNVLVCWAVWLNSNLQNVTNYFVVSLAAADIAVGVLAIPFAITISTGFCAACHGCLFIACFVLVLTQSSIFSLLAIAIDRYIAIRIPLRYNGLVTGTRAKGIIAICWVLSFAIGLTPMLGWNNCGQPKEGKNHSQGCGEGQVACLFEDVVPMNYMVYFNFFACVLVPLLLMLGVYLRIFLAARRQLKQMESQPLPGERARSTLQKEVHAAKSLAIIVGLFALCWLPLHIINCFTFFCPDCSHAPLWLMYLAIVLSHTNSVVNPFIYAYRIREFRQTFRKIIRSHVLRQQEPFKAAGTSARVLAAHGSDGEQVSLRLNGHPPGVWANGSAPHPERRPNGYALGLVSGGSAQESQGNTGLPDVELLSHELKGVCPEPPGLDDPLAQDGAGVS
Assay: Displacement of [3H]ZM241385 from human adenosine A2A receptor expressed in HEK293 cells after 1 hr by microbeta scintillation counting analysis
Format: cell-based

| Ki | SMILES |
| --- | --- |
| > 10 µM | Cn1ccc2nc(/C=C/c3ccccc3)n(C)c2c1=O |
| > 1 µM | Cn1c(=O)c2c(cc(-c3nc4ccc(Cl)cc4o3)n2C)n(C)c1=O |
| 0.467 µM | Cn1c(=O)c2c(cc(/C=C/c3ccc4c(c3)OCO4)n2C)n(C)c1=O |
| > 10 µM | Cn1c(/C=C/c2ccccc2)nc2c1ccc(=O)n2C |
| > 1 µM | CN(C(=O)/C=C/c1ccccc1)c1cn(C)c(=O)n(C)c1=O |
| > 10 µM | CCn1c(=O)c2c(cc(/C=C/c3ccc(Cl)cc3)n2C)n(CC)c1=O |
| > 10 µM | Cn1c(=O)c2c(cc(C#CCc3ccccc3)n2C)n(C)c1=O |
| > 10 µM | Cn1c(=O)c2c(cc(/C=C/c3ccncc3)n2C)n(C)c1=O |
| > 10 µM | Cn1c(=O)c2c(cc(/C=C/c3cccc(C#N)c3)n2C)n(C)c1=O |
| > 10 µM | CCn1c(/C=C/c2ccc(Cl)cc2)cc2c1c(=O)n(C)c(=O)n2C |
| > 10 µM | CCn1c(=O)c2c(cc(C#Cc3ccc(Cl)cc3)n2C)n(CC)c1=O |
| > 10 µM | Cn1c(=O)c2c(cc(NC(=O)c3ccc(Cl)cc3)n2C)n(C)c1=O |
| > 10 µM | Cn1c(=O)c2c(cc(Oc3cccc(-c4ccccc4)c3)n2C)n(C)c1=O |
| > 10 µM | Cn1c(=O)c2c(c3ccc(-c4ccccc4)cc3n2C)n(C)c1=O |
| > 10 µM | CC(=O)c1cccc(/C=C/c2cc3c(c(=O)n(C)c(=O)n3C)n2C)c1 |
| > 10 µM | Cn1c(=O)c2c(cc(Oc3cccc(Cl)c3)n2C)n(C)c1=O |
| 0.43 µM | Cn1c(=O)c2c(cc(/C=C/c3cccc(Cl)c3)n2C)n(C)c1=O |
| > 10 µM | CCn1c(=O)c2c(cc(OCc3ccc(Cl)cc3)n2C)n(CC)c1=O |
| > 1 µM | Cn1c(=O)c2c(cc(/C=C/c3ccc(S(C)(=O)=O)cc3)n2C)n(C)c1=O |
| 0.887 µM | Cn1c(=O)c2c(cc(/C=C/c3cccc(N)n3)n2C)n(C)c1=O |
| 0.17 µM | Cn1c(=O)c2c(cc(/C=C/c3ccccc3)n2C)n(C)c1=O |

— ChEMBL document CHEMBL2311471, “Synthesis of (E)-8-(3-chlorostyryl)caffeine analogues leading to 9-deazaxanthine derivatives as dual A(2A) antagonists/MAO-B inhibitors” (J Med Chem, 2013)
